Assay results taken from PMC8146980, “An Arrhythmic Mutation E7K Facilitates TRPM4 Channel Activation via Enhanced PIP2 Interaction” (Cells, 2021).

Assays:
TRPM4 (TRPM4b) [1] = biological target: T1, TRPM4 (TRPM4b) (Homo sapiens, UniProt Q8TD43, E7K); experiment: inside-out patch clamp, HEK293, reactivation after desensitization, Hill fit; format: cell-based; settings: read-out: apparent EC50; Kd (abstract)
T1 construct: full-length human TRPM4b CDS subcloned into pcI-neo, expressed in HEK293 cells (original clone in pcDNA4TO-Flag); homotetramer (known biology)

TRPM4 (TRPM4b) [2] = biological target: T2, TRPM4 (TRPM4b) (Homo sapiens, UniProt Q8TD43); experiment: as above; format: cell-based; settings: read-out: apparent EC50; Kd (abstract)
T2 construct: full-length human TRPM4b CDS subcloned into pcI-neo, expressed in HEK293 cells (original clone in pcDNA4TO-Flag); homotetramer (known biology)
T2 sequence (Q8TD43 whole entry): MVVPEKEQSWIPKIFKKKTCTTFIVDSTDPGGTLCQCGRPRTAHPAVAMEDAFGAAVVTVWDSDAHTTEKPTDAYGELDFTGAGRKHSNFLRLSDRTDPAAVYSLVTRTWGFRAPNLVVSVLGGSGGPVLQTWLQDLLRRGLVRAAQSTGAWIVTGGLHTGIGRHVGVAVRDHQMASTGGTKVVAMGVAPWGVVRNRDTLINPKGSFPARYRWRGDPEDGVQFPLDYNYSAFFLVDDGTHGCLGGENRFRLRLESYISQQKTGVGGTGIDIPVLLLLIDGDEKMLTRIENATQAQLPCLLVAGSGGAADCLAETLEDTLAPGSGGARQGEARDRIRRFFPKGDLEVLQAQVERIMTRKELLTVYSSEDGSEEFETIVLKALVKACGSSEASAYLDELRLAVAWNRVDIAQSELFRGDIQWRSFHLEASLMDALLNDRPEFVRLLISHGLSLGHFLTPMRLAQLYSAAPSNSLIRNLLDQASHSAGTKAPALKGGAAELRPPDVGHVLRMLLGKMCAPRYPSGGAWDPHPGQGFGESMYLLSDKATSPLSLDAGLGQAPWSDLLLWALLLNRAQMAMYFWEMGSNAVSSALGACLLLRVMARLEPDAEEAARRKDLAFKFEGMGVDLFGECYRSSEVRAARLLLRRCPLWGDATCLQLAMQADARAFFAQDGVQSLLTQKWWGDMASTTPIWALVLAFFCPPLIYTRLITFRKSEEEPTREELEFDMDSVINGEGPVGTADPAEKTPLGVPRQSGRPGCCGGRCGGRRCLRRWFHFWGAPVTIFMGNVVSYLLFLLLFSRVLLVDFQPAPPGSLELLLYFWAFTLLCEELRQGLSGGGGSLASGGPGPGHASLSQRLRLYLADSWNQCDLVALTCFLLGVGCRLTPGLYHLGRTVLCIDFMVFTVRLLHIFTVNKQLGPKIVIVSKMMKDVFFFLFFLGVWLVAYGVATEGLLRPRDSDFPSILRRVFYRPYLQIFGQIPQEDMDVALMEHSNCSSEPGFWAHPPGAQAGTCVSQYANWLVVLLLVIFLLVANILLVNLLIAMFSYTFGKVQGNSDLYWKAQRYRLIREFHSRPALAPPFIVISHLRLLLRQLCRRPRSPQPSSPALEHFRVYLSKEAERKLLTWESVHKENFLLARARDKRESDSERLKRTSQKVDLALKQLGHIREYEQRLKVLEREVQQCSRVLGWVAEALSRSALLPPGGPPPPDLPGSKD

T1 sequence (Q8TD43 whole entry E7K): as the sequence (Q8TD43 whole entry) above, with E7K counted along it

SMILES: CCCCCCCC(=O)OC[C@H](COP(=O)(O)O[C@@H]1[C@H](O)[C@H](O)[C@@H](OP(=O)(O)O)[C@H](OP(=O)(O)O)[C@H]1O)OC(=O)CCCCCCC [diC8-PI(4,5)P2]
- EC50 (TRPM4 (TRPM4b) [1]): 1440 ± 200 nM
- EC50 (TRPM4 (TRPM4b) [2]): 2400 ± 230 nM
